Test results from US7001756B1, “Microorganism strain of GM-020 of Lactobacillus rhamnosus and its use for treating obesity” (GenMont Biotech Inc., priority 2004, dated 2006).

How the values were obtained:
[1] = Obesity model: liver concentration of fat metabolites; type: in vivo, ICR mice; conditions: right lobe of liver; 4 weeks treatment; GM-020 10^9 CFU/mL or PPA 4.875 mg each time, twice a day
Protocol: (§1) Food and water were supplemented sufficiently. The mice were divided into two groups. […] The mice's body weights were measured every week.
(§2) The treatments were administrated twice a day.
Liver concentration of fat metabolites: The mice were sacrificed, and the right lobe of liver was taken. The fat was extract according to the conventional method.
For each sample, the concentration of triacylglycol (TG) and total cholesterol (CHOL) were assayed as mentioned above.

[2] = Obesity model: body weight of ICR mice on high energy diet; type: in vivo; conditions: GM-020 10^9 CFU/mL or PPA 4.875 mg each time, twice a day
Protocol: as §1, §2
Body weight difference: After treated for 4 weeks, blood samples were collected from the tails for biochemical assay.

[3] = Obesity model: lipid tissue weight around the testicle and the kidney; type: in vivo, ICR mice; conditions: after 4 weeks treatment; GM-020 10^9 CFU/mL or PPA 4.875 mg each time, twice a day
Protocol: as §1, §2
Differences of lipid tissue weight around the testicle: The mice were sacrificed, and the lipid tissues around the testicle were taken and weighted.
Differences of lipid tissue weight around the kidney: The mice were sacrificed, and the lipid tissues around the kidney were taken and weighted.

[4] = Liver and kidney function assays (serum GOT, GPT, creatinine, uric acid); conditions: 4 weeks treatment, GM-020 10^9 CFU/mL or PPA 4.875 mg each time, twice a day
Protocol: Animal model: Male ICR mice were purchased from National Laboratory Animal Center in Taiwan and raised alone in light for 12 hours and in dark for 12 hours at a temperature of 25±1° C. and a humidity of 60±5%. Food and water were supplemented sufficiently. The mice were divided into two groups. One was normal control group and the other was high energy group. The normal control group was fed with normal diet, and the high energy group was fed with high energy diet containing 48% dry feeding stuff, 8% corn oil and 44% condensed milk. The mice's body weights were measured every week. The high energy group was further divided into groups as listed below according treatment: (a) 1× of wood ear, (b) 1× of wood ear combined with GM-020, (c) GM-020, (d) 10× of wood ear, (e) 10× of wood ear combined with GM-020, (f) negative control treated with normal saline, and (g) positive control treated with PPA.
Treatment with GM-020 and/or wood ear: The normal control group was fed with normal diet continuously. The treatments were administrated twice a day. The dosage of PPA was 4.875 mg each time. In the meal of 1× of wood ear, there was 15.6 mg of wood ear in 3 g diet, and in the meal of 10× of wood ear, there is 156 mg of wood ear in 3 g diet. The dosage of GM-020 was 10^9 CFU/mL.
Liver and kidney function assays: The blood samples were treated as described above.
For each sample, the concentration of creatinine was assayed according to Jaffe Reaction method (Unichem®, Japan) and the absorption was measured with Autoanalyzer Hitachi™ 7150. The concentration of GOT was assayed with GOT (ASAT) IFCC mod™. (HUMAN®, Germany) and the absorption was measured with Autoanalyzer Hitachi™ 7150. The concentration of GPT was assayed with GPT (ALAT) IFCC mod™. (HUMAN®, Germany) and the absorption was measured with Autoanalyzer Hitachi™ 7150. The concentration of uric acid (UA) was assayed according to uricase-peroxidase method (Unichem®, Japan) and the absorption was measured with Autoanalyzer Hitachi™ 7150.
The data were analyzed with Kruskal Wallis H Test, and that of the normal control group was taken as a baseline for Dunnett Test.

[5] = Obesity model: serum concentration of fat metabolites; type: in vivo, ICR mice; conditions: 4 weeks treatment, GM-020 10^9 CFU/mL or PPA 4.875 mg each time, twice a day
Protocol: as §1, §2
Serum concentration of fat metabolites: Blood samples were collected from the tails for biochemical assay. The blood samples were stayed at room temperature for 1 hour and centrifuged at 2,500 rpm for 10 minutes. The upper layer of serum was taken for assay.
The concentration of triacylglycol (TG) of each group was assayed with TRI[…] LIQUID REAGENT™ (ASK®, Taiwan) and the absorption was measured with Autoanalyzer Hitachi™ 7150. The concentration of total cholesterol (CHOL) was assayed with C[…] REAGENT™ (ASK®, Taiwan), and the absorption was measured with Autoanalyzer Hitachi™ 7150.

Structure (SMILES): CC(N)C(O)c1ccccc1 (centres unmarked) [Positive Control, phenylpropanolamine]
- CHOL (liver concentration of total cholesterol) [1]: 26.75 ± 1.48
- TG (liver concentration of triacylglycol) [1]: 103.58 ± 11.41
- body weight compared with the negative control group ([2]; after 2 weeks): significant decrease
- body weight compared with the negative control group ([2]; after 3 weeks): significant decrease
- lipid tissue weight around the kidney compared with the negative control group [3]: little difference
- lipid tissue weight around the testicle compared with the negative control group [3]: significant decrease
- Creatinine [4]: 0.56 ± 0.03
- GOT [4]: 117.50 ± 12.95
- GPT [4]: 47.00 ± 6.17
- UA (uric acid) [4]: 2.42 ± 0.50
- CHOL (serum concentration of total cholesterol) [5]: 219.08 ± 11.22
- HDL (serum concentration of HDL-C) [5]: 123.19 ± 4.20
- LDL (serum concentration of LDL-C) [5]: 10.04 ± 0.93
- TG (serum concentration of triacylglycol) [5]: 75.83 ± 9.93
